Experiments:
Type in all cases: cell-based
P2Y14 receptor [1] = biological target: T1, P2Y14 receptor (Homo sapiens, UniProt Q15391); test: Agonist calcium mobilization assay (Fluo-8) in HEK293T Gαqi5 cells stably expressing human P2Y14R; settings: HEK-293T; read-out: CONCENTRATION / 100 μM
T1 construct: gene P2RY14
T1 sequence (Q15391 1-338): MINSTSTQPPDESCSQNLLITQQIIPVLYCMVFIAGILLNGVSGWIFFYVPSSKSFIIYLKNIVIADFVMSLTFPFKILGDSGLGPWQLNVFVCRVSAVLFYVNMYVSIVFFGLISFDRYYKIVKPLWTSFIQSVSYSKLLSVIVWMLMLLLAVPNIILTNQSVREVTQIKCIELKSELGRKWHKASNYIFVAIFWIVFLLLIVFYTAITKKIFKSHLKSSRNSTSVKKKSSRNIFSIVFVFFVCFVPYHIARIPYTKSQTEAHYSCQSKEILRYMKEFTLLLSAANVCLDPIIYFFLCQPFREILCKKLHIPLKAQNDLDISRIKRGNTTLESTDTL

P2Y14 receptor [2] = biological target: T1, P2Y14 receptor; test: Antagonist calcium mobilization assay (Fluo-8) in HEK293T Gαqi5 cells stably expressing human P2Y14R; residual response to UDPG (EC80)[…] at […], […] at […]; settings: HEK-293T; read-out: CONCENTRATION / 1000 μM
P2Y14 receptor [3] = biological target: T1, P2Y14 receptor; test: Agonist calcium mobilization assay (Fluo-8) in HEK293T Gαqi5 cells stably expressing human P2Y14R; settings: HEK-293T; read-out: CONCENTRATION / 1 μM

| Compound | activation at 100 µM (P2Y14 receptor [1]) | also measured |
| --- | --- | --- |
| Nc1ncnc2c1ncn2[C@@H]1O[C@H](COP(O)(O)=S)[C@@H](O)[C@H]1O [AMPS, adenosine 5'-O-monophosphorothioate] | 84.4 ± 17.6% | – |
| Nc1ccn([C@@H]2O[C@H](COP(O)(O)=S)[C@@H](O)[C@H]2O)c(=O)n1 [CMPS, cytidine 5'-O-monophosphorothioate] | 77.5 ± 4.4% | – |
| Cc1cn([C@H]2C[C@H](O)[C@@H](COP(O)(O)=S)O2)c(=O)[nH]c1=O [TMPS, thymidine 5'-O-monophosphorothioate] | – | activity at 1000 µM (P2Y14 receptor [2]): 17.3 ± 52.9% |
| O=c1ccn([C@@H]2O[C@H](COP(O)(O)=S)[C@@H](O)[C@H]2O)c(=O)[nH]1 [UMPS, uridine 5'-O-monophosphorothioate] | – | activation at 1 µM (P2Y14 receptor [3]): 84.5 ± 5.34% |

Source: PMC5342483, “Nucleoside 5′-O-monophosphorothioates as modulators of the P2Y14 receptor and mast cell degranulation” (Oncotarget, 2016)
